Literature values in patent US20110160463A1, “PROCESS FOR MAKING SUBSTITUTED 2-AMINO-THIAZOLONES” (Amgen Inc., priority 2008, published 2011).

Key:
[1] = biological target: T1, 11βHSD1 (Homo sapiens, UniProt P28845); conditions: ingestion, normal subjects
T1 construct: reduce the intraocular pressure by 20% in normal subjects; host or cells: endogenous enzyme in living subjects (eye)
T1 sequence (P28845 whole entry): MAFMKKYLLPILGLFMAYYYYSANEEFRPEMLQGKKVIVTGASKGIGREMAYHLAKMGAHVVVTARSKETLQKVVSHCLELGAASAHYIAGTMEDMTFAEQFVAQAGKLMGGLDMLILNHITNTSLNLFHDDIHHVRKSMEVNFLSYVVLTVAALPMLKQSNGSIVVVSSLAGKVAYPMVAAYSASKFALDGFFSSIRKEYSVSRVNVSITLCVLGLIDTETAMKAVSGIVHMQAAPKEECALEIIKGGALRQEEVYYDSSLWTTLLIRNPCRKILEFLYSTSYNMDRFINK

[2] = biological target: T2, 11βHSD1 (Homo sapiens, UniProt P28845); conditions: healthy human volunteers
T2 construct: Hepatic insulin sensitivity was improved in healthy human volunteers; host or cells: endogenous enzyme in human volunteers (liver)
T2 sequence (P28845 whole entry): as above

[3] = tested on: bone nodule formation

CC1(C)[C@@H](OC(=O)CCC(=O)O)CC[C@]2(C)[C@H]3C(=O)C=C4[C@@H]5C[C@@](C)(C(=O)O)CC[C@]5(C)CC[C@@]4(C)[C@]3(C)CC[C@@H]12 [carbenoxolone]
reduction of the intraocular pressure [1]: 20%
hepatic insulin sensitivity [2]: improved
negative effect (of glucocorticoids) on bone nodule formation [3]: blocked
